The values below are quoted from earlier work in patent US20220401390A1, “TREATMENTS OF DIABETIC MACULAR EDEMA AND IMPAIRED VISUAL ACUITY” (KALVISTA PHARMACEUTICALS LIMITED, priority 2019, published 2022).

One series concerns patients with DME. As to conditions: clinical trials, after one year; cited from earlier work.
For another series, the system named is diabetic rats. The settings on record: cited from earlier work.

As for “aflibercept: anti-VEGF therapy for DME currently in use”, in the series on patients with DME, the “Efficacy compared with laser therapy” value is “more effective than laser therapy”.
For the molecule “bevacizumab: anti-VEGF therapy for DME currently in use”, the “Efficacy compared with laser therapy” value in the series on patients with DME is “more effective than laser therapy”.
As for pegaptanib, in the series with patients with DME, the “Efficacy compared with laser therapy” value is “more effective than laser therapy”.
On to `N=C(N)c1ccc(CNC(=O)c2cnn(Cc3ccccc3)c2)cc1` [ASP-440], for which the “Retinal vascular permeability and retinal blood flow abnormalities” value in the series with diabetic rats was “ameliorated”.

B1: ranibizumab: anti-VEGF therapy for DME currently in use (antibody, chains of the INN, looked up, V domains shown)
VH: EVQLVESGGGLVQPGGSLRLSCAASGYDFTHYGMNWVRQAPGKGLEWVGWINTYTGEPTYAADFKRRFTFSLDTSKSTAYLQMNSLRAEDTAVYYCAKYPYYYGTSHWYFDVWGQGTLVTVSS
VL: DIQLTQSPSSLSASVGDRVTITCSASQDISNYLNWYQQKPGKAPKVLIYFTSSLHSGVPSRFSGSGSGTDFTLTISSLQPEDFATYYCQQYSTVPWTFGQGTKVEIK
modifications: Fab
notes: anti-VEGF therapy for DME currently in use
For B1, the “Efficacy compared with laser therapy” value with patients with DME is given as “more effective than laser therapy”.
